Data from US20140161720A1, “TREATMENT OF ANGIOGENIC- OR VASCULAR-ASSOCIATED DISEASES” (THE GENERAL HOSPITAL CORPORATION, priority 2011, published 2014).
“Also recorded” adds a separate entry of the source.

Tests used:
[1] = system: orthotopic 4T1 mammary tumors; test: Vascular parameters in tumors by intravital multiphoton microscopy; type: in vivo, female SCID mice; settings: 37.5 mg/kg daily i.p.
Procedure: Female SCID mice bearing orthotopic GFP-labeled 3 mm 4T1 mammary tumors were treated with five daily i.p. injections (day 0-day 4) of 37.5 mg/kg DAL or saline. Implanted mammary fat pad windows (35) were surgically implanted to facilitate intravital imaging through multiphoton microscopy with a custom-built multiphoton microscope with a 20×0.95NA objective (Olympus), and mice were imaged by fluorescent angiography following retro-orbital injection of 60 uL of 10 mg/mL TAMRA-dextran (2MDa molecular mass). Images were collected on day 0, day 2, and day 4, with the first images collected immediately before the first treatment. The 2×2 grids were imaged in the sample plane (630-μm) field of view at each position) tissue from 0-200 μm depth. To measure vascular parameters in the mice over the course of treatment, a custom 3D vascular tracing and analysis software package based on MATLAB (The Mathworks) was applied to the images.
To study these effects quantitatively, fluorescent angiographies were conducted in female SCID mice bearing orthotopic 4T1 mammary tumors in mammary fat pad windows via intravital multiphoton microscopy (FIG. 3A) (22-24). These mice were treated with 37.5 mg/kg DAL or saline daily for 5 days by i.p. injection. It was determined that DAL treatment decreases tumor vascular volume fractions—a measure of vascular density—compared with saline treatment (FIG. 3B, p<0.002, day 4).

MDA-MB-231 cells [2] = test: High-throughput cell adhesion screen (cells remaining attached); type: cell-based, human; settings: FIG. 1C
Procedure: A cell-based readout system was used for compound selection. For the cell-based screening, an optimal cell density of 10,000 breast cancer MDA-MB-231 cells/well was selected to produce the most prominent signal. The plated cells were incubated with each library compound, washed with PBS, and the Cell Titer-Glo (Promega) reagent was used to detect the number of cells remaining attached in each well. This ATP-based detection has a linear relationship between the luminescent signal and the number of cells per well. Of the 50,000 compounds screened, 86 library compounds (0.172% of screened compounds) were selected at 1.67 μM concentration for the second screening step. […] As a further test of toxicity, DAL was injected intraperitoneally at 100 mg/kg in SCID mice and signs of toxicity including cachexia, ruffled fur, diarrhea, anorexia, skin ulceration, and toxic death were monitored.
(§1) A screening strategy was developed to identify potential agents that target adhesion of endothelial cells or cancer cells to their substrate. […] The initial screening step quantified the number of cells remaining attached to their wells following incubation with each compound and subsequent washing steps. […] The agents that affect cell adhesion can be monitored through remodeling of actin filaments. […] Changes in actin assembly and cell shape after treatment with 12 compounds were determined. […]

MDA-MB-231 cells [3] = test: Cell spreading and F-actin visualization on fibronectin (phalloidin); type: cell-based, human; settings: 5 μM, two hours
From the text: FIGS. 1A to 1E show a schematics of an exemplary drug screen for antivascular agent described herein, e.g., dehydro-alpha-lapachone (DAL) and effects of DAL on cell adhesion properties. […] Of the 50,000 compounds screened, 86 compounds were selected to test in the secondary assays. Only compounds that made MDA-MB-231 cells more rounded, with less spreading than control cells, and interfered with actin regulation were selected for further study. All these selected small molecules were further passed through a number of filtering toxicity assays to eliminate toxic compounds. […] The non-toxic compounds were then analyzed in a zebrafish model. […]
A cell-based readout system was used for compound selection. […] As a further test of toxicity, DAL was injected intraperitoneally at 100 mg/kg in SCID mice and signs of toxicity including cachexia, ruffled fur, diarrhea, anorexia, skin ulceration, and toxic death were monitored.
as §1

CC1(C)C=CC2=C(O1)C(=O)c1ccccc1C2=O [DAL, dehydro-alpha-lapachone]
total tumor vascular length (normalized to tumor volume) ([1]; day 2 and day 4, versus saline): lower
tumor vascular volume fraction ([1]; day 4, versus saline): decreases; also recorded: lower
mean tumor vascular diameter ([1]; versus saline): remains the same; also recorded: no significant difference
cell adhesion properties (MDA-MB-231 cells [2]): lost their adhesion properties
cell spreading, size and shape on fibronectin-coated plates (MDA-MB-231 cells [3]): significantly smaller than control cells and had a rounded shape
F-actin distribution (MDA-MB-231 cells [3]; phalloidin): actin was accumulated close to the membrane
